In ChEMBL document CHEMBL3621158, “Synthesis of new betulinic acidpeptide conjugates and in vivo and in silico studies of the influence of peptide moieties on the triterpenoid core activity” (2015) one finds inhibition in vivo data, which are given here for eight compounds.

Type in all cases: functional
Assay [1] concerns Mus musculus. Kind of assay: Anti-inflammatory activity in mouse model of histamine-induced paw edema assessed as inhibition of inflammation at 50 mg/kg, ip dosed 1 hr before histamine injection relative to 50 mg/kg, ip indomethacin.
Assay [2] relates to Mus musculus. Kind of assay: Anti-inflammatory activity in mouse model of histamine-induced paw edema assessed as inhibition of inflammation at 50 mg/kg, ip dosed 1 hr before histamine injection.
Assay [3] deals with Mus musculus. Kind of assay: Anti-inflammatory activity in mouse model of histamine-induced paw edema assessed as inhibition of inflammation at 20 mg/kg, po dosed 1 hr before histamine injection.

For `C=C(C)[C@@H]1CC[C@]2(C(=O)O)CC[C@]3(C)[C@H](CC[C@@H]4[C@@]5(C)CC[C@@](O)(c6cn(C[C@H](C)N(C(=O)[C@H](Cc7ccccc7)NC(=O)OC(C)(C)C)C(=O)C(C)(C)NCc7ccc(OC)cc7OC)nn6)C(C)(C)[C@@H]5CC[C@]43C)[C@@H]12`, the inhibition in vivo – broadly, the drop in the measured response relative to a control, in per cent – at 50 mg/kg with Mus musculus [1] came out at 6%; in the assay on Mus musculus [2], 2.5%.
On the same counts, the results for `C=C(C)[C@@H]1CC[C@]2(C(=O)O)CC[C@]3(C)[C@H](CC[C@@H]4[C@@]5(C)CC[C@@](O)(c6cn(C[C@H](C)N(C(=O)[C@@H](NC(=O)OC(C)(C)C)[C@@H](C)CC)C(=O)C(C)(C)NCc7ccc(OC)cc7OC)nn6)C(C)(C)[C@@H]5CC[C@]43C)[C@@H]12` are 74.3% and 31.2%.
With `C#C[C@]1(O)CC[C@]2(C)[C@H]3CC[C@@H]4[C@H]5[C@H](C(=C)C)CC[C@]5(C(=O)O)CC[C@@]4(C)[C@]3(C)CC[C@H]2C1(C)C`, the inhibition in vivo at 50 mg/kg in the assay on Mus musculus [1] stood at 60%; in the assay on Mus musculus [2] it was 25.2%.
For `COc1ccc2c(c1)c(CC(=O)O)c(C)n2C(=O)c1ccc(Cl)cc1` [INDOMETHACIN], the inhibition in vivo at 20 mg/kg with Mus musculus [3] came out at 32.8%. For the same compound, the inhibition in vivo at 50 mg/kg with Mus musculus [1] came to 78%; in the assay on Mus musculus [2] it was 42%.
As for `C=C(C)[C@@H]1CC[C@]2(C(=O)O)CC[C@]3(C)[C@H](CC[C@@H]4[C@@]5(C)CC[C@@](O)(c6cn(CCNC(=O)C(C)(C)N(Cc7ccc(OC)cc7OC)C(=O)[C@H](Cc7c[nH]cn7)NC(=O)OC(C)(C)C)nn6)C(C)(C)[C@@H]5CC[C@]43C)[C@@H]12`, the inhibition in vivo at 50 mg/kg with Mus musculus [1] is 79%; in the assay with Mus musculus [2], 33.4%.
The matching figures for `C=C(C)[C@@H]1CC[C@]2(C(=O)O)CC[C@]3(C)[C@H](CC[C@@H]4[C@@]5(C)CC[C@@](O)(c6cn(C[C@H](Cc7ccccc7)N(C(=O)[C@H](CO)NC(=O)OC(C)(C)C)C(=O)C(C)(C)NCc7ccc(OC)cc7OC)nn6)C(C)(C)[C@@H]5CC[C@]43C)[C@@H]12`: 55% and 23%.
For `C=C(C)[C@@H]1CC[C@]2(C(=O)O)CC[C@]3(C)[C@H](CC[C@@H]4[C@@]5(C)CC[C@@](O)(c6cn(C[C@H](Cc7ccccc7)N(C(=O)[C@H](Cc7cc8ccccc8[nH]7)NC(=O)OC(C)(C)C)C(=O)C(C)(C)NCc7ccc(OC)cc7OC)nn6)C(C)(C)[C@@H]5CC[C@]43C)[C@@H]12`, the results for the inhibition in vivo at 50 mg/kg in the assay on Mus musculus [1] and in the assay with Mus musculus [2] were 92% and 38.8%, respectively.
Take `C=C(C)[C@@H]1CC[C@]2(C(=O)O)CC[C@]3(C)[C@H](CC[C@@H]4[C@@]5(C)CC[C@](O)(c6cn(C[C@H](C)N(C(=O)[C@@H](NC(=O)OC(C)(C)C)[C@@H](C)CC)C(=O)C(C)(C)NCc7ccc(OC)cc7OC)nn6)C(C)(C)[C@@H]5CC[C@]43C)[C@@H]12`: the inhibition in vivo at 50 mg/kg with Mus musculus [1] was 34.5%; in the assay with Mus musculus [2], 14.5%.
